Measurements taken from US8178091B2, “Compositions and methods for the treatment of respiratory disorders” (University of Washington, priority 2007, dated 2012).

Tested on: lung fibroblasts
Experiment: IGF-1 expression in lung fibroblasts
Format: cell-based
Conditions: not shown
Excerpt: IGF-1 was implicated as a fibroblast mitogen in BALF from patients with sarcoidosis (Allen et al., Am J Respir Cell Mol Biol 19:250-258 (1998)) and systemic sclerosis (Harrison et al., Clin Sci (Lond) 86:141-148 (1994)). […] In the experiments described herein, IGF-1 mediated cell survival and migration, but not proliferation of normal lung fibroblasts through IGF-1R. The prior studies used either the fetal fibroblast cell line IMR-90 or human fetal embryonic fibroblasts (HFL-1) to examine the proliferative response (Allen et al., Am J Respir Cell Mol Biol 19:250-258 (1998); Harrison et al., Clin Sci (Lond) 86:141-148 (1994)). In contrast, the studies described herein used early passage primary adult lung fibroblasts, which may account for differences in results. In addition, the mitogenic response to IGF in the earlier studies was determined by immunodepletion of IGF from BALF (Allen et al., Am J Respir Cell Mol Biol 19:250-258 (1998); Harrison et al., Clin Sci (Lond) 86:141-148 (1994)). Without wishing to be bound by theory, it is thought that activation of fibroblasts by other growth factors or cytokines such as TGFβ1 in BALF may be necessary for the pro-proliferative effect of IGF (Scarpa et al., Peptides 26:2201-2210 (2005); Danielpour and Song, Cytokine & growth factor reviews 17:59-74 (2006)).

TGFβ1: growth factor, mediator of fibrosis
IGF-1 expression in lung fibroblasts: significantly upregulated IGF-1 expression
